Test results: PMC11775380, “Discovery of Novel Nav1.7-Selective Inhibitors with the 1H-Indole-3-Propionamide Scaffold for Effective Pain Relief” (Research, 2025)

What was measured:
[1] = biological target: T1, Nav1.7 Y1548A/V1552A/M1593A (Homo sapiens, UniProt Q15858, M1593A/V1552A/Y1548A); assay: Multiple site-directed mutagenesis, inhibition by patch clamp; format: cell-based; details: 1 μM
T1 construct: expressed in transfected cells; host or cells: HEK293T
Text: (§1) To further investigate the roles of these residues in WN2-R binding, 3 combinations of double or triple site-directed mutagenesis were introduced, including Y1548A/F1609A (to investigate the function of phenyl ring-containing residues surrounding WN2-R, Fig. 4E), E1545A/E1600A (to examine the importance of negatively charged residues at the binding site entrance, Fig. 4F), and Y1548A/V1552A/M1593A (to understand the role of the outer hydrophobic wall formed by these residues in ligand binding, Fig. 4G).
(§2) Whole-cell patch-clamp recordings were conducted at 25 ± 2 °C, utilizing an EPC 10USB patch-clamp amplifier (HEKA Elektronik, Lambrecht, Germany). Pipettes, with access resistance between 2.0 and 3.0 MΩ, were pulled from borosilicate glass capillary tubes using a 2-step vertical microelectrode puller (PC-10, Narishige Group, Tokyo, Japan). Voltage-clamp recordings were obtained with PatchMaster software v2 × 73 (HEKA Elektronik) 5 min after establishing whole-cell configuration, sampled at 20 kHz, and filtered at 5 kHz. To minimize voltage errors, 80% series resistance compensation was applied. Pipettes were filled with 140 mM CsF, 10 mM NaCl, 1 mM EGTA, and 10 mM HEPES (pH=7.4, adjusted with CsOH). The external solution contained 140 mM NaCl, 2 mM CaCl2, 1 mM MgCl2, 5 mM KCl, 10 mM HEPES, and 10 mM glucose (pH=7.4, adjusted with NaOH). IC50 values were determined in HEK293T or ND7/23 cell lines by voltage clamping at −80 mV, followed by stepping to the V1/2 of inactivation for 8 s to facilitate compound binding.

Nav1.7 Y1548A/F1609A = biological target: T2, Nav1.7 Y1548A/F1609A (Homo sapiens, UniProt Q15858, F1609A/Y1548A); assay: as above; format: cell-based; details: 1 μM
T2 construct: expressed in transfected cells; host or cells: HEK293T
T2 sequence (Q15858 whole entry Y1548A/F1609A): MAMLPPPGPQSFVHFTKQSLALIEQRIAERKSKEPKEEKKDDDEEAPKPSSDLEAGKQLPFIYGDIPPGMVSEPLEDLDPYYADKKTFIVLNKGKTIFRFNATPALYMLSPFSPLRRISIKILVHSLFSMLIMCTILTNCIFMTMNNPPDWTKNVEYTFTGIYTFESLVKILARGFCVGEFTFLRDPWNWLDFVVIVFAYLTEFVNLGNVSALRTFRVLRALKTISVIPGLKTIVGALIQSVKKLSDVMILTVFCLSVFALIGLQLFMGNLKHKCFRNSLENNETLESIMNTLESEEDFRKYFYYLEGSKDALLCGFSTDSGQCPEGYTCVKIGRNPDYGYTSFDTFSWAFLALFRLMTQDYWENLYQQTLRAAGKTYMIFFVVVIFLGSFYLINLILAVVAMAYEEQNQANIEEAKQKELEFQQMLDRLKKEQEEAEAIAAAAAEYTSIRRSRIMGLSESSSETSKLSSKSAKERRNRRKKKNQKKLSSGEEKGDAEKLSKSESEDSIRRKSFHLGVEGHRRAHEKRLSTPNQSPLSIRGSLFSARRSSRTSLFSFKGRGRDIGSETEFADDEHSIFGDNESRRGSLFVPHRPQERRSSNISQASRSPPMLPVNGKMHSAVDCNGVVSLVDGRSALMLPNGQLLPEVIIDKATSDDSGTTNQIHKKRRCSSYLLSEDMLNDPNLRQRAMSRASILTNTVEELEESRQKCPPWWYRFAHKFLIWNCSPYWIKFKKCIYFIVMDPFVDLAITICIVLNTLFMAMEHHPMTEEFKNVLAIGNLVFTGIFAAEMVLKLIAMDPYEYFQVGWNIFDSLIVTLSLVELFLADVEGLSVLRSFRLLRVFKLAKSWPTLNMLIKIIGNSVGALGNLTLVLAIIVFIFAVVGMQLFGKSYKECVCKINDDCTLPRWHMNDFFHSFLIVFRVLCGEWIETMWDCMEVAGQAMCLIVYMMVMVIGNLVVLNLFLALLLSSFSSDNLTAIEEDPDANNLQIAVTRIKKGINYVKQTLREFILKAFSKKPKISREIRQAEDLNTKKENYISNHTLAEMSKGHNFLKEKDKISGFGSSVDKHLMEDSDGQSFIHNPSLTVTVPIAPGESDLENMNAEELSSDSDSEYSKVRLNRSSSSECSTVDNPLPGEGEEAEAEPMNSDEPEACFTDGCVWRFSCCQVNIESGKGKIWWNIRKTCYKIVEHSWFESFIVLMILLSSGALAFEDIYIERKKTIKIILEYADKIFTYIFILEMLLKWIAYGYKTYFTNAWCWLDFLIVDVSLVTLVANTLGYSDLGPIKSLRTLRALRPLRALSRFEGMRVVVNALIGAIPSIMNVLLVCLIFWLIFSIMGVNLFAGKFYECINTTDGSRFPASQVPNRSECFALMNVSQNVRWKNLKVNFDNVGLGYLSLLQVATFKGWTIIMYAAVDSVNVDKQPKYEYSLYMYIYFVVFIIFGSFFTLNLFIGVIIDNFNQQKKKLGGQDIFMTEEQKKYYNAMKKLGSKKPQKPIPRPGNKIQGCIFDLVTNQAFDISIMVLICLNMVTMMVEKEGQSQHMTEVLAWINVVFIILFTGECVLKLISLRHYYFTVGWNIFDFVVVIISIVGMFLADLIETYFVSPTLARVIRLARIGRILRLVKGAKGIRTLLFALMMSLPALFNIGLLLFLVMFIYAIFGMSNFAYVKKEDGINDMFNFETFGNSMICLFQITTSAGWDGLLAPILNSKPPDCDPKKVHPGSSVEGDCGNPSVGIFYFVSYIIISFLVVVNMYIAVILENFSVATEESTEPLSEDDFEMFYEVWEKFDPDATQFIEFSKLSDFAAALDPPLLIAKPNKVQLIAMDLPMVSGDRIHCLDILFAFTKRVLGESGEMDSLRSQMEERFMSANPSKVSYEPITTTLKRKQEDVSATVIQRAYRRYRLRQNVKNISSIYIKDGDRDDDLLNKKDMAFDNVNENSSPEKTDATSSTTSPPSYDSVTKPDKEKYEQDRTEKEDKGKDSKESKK
T2 sequence (Q07699 19-218 partner): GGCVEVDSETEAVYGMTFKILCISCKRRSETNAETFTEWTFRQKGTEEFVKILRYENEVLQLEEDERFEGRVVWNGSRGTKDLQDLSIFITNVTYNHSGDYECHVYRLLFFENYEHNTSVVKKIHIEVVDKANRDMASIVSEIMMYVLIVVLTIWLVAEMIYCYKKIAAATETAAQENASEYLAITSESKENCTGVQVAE
T2 sequence (O60939 30-215 partner): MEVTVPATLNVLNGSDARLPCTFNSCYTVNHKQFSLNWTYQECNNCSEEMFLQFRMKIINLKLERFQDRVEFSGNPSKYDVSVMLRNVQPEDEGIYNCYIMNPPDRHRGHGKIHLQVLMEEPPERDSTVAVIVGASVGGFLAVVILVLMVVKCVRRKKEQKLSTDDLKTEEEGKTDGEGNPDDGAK
Text: as §1, §2

Nav1.7 E1545A/E1600A = biological target: T3, Nav1.7 E1545A/E1600A (Homo sapiens, UniProt Q15858, E1545A/E1600A); assay: as above; format: cell-based; details: 1 μM
T3 construct: expressed in transfected cells; host or cells: HEK293T
T3 sequence (Q15858 whole entry E1545A/E1600A): as the sequence (Q15858 whole entry Y1548A/F1609A) above, with E1545A, A1548Y, E1600A, A1609F counted along it
T3 sequence (Q07699 19-218 partner): as the sequence (Q07699 19-218 partner) above
T3 sequence (O60939 30-215 partner): as the sequence (O60939 30-215 partner) above
Text: as §1, §2

[2] = system: acetic acid writhing pain model in mice; assay: Acetic acid-induced writhing test; format: in vivo, ICR mice; details: 15 min before acetic acid, writhing counted 30 min
Text: Acute pain was a common type of pain with considerable value for drug development. Here, 2 acute inflammatory pain models were used to verify the acute analgesic effect of WN2-R. One such model, the acetic acid writhing pain model in mice, is a well-established acute visceral pain model. It simulates clinically relevant intestinal discomfort by stimulating the abdominal mucosa and intestine with acetic acid and has been extensively used to screen analgesic or anti-inflammatory drugs. Based on this model, we evaluated the acute analgesic effect of WN2-R using 2 drug delivery methods, i.g. and […] (n = 6). […] Furthermore, the analgesic effect of WN2-R at the same dose was similar to that of the positive control drug PF-05089771, with no significant difference between these two. […] Three male and 3 female ICR mice were used in the acetic acid-induced writhing test. Mice were preadministered with either WN2-R (5 mg/kg i.g., 1 mg/kg i.m.), PF05089771 (5 mg/kg i.g., 1 mg/kg i.m.), or saline 15 min before i.p. injection of 0.2 ml of acetic acid (0.8%, V/V). Each mouse was then placed in an individual open polyvinyl cage (30 cm × 40 cm × 30 cm). The number of writhing responses, characterized by a wave of abdominal muscle contraction followed by hind limb extension, was recorded for 30 min after acetic acid injection. These responses served as an indication of nociceptive intensity. The percentage of inhibition was calculated using the following equation: Inhibition% = (Writhing Numbervehicle – Writhing Numberdrug)/Writhing Numbervehicle × 100% [15, 47].

human Nav1.7 (hNav1.7) = biological target: T4, human Nav1.7 (hNav1.7) (Homo sapiens, UniProt Q15858); assay: Whole-cell patch-clamp inhibition of Nav1.7 currents in transfected HEK293T cells; format: cell-based
T4 construct: expressed in transfected cells; host or cells: HEK293T
T4 sequence (Q15858 whole entry): as the sequence (Q15858 whole entry Y1548A/F1609A) above, with A1548Y, A1609F counted along it
T4 sequence (Q07699 19-218 partner): as the sequence (Q07699 19-218 partner) above
T4 sequence (O60939 30-215 partner): as the sequence (O60939 30-215 partner) above
Experimental: Human embryonic kidney (HEK) 293T (ATCC CRL-3216) and ND7/23 cells (National Collection of Authenticated Cell Cultures SCSP-5026) were cultured under standard conditions (5% CO2, 37 °C) in Dulbecco’s modified Eagle’s medium (DMEM) containing 10% fetal bovine serum and 1% penicillin-streptomycin solution(all from Gibco, Thermo Fisher Scientific, Waltham, MA, USA). When the cells reached 70% to 90% confluence, human Nav1.2 (hNav1.2), human Nav1.3 (hNav1.3), human Nav1.4 (hNav1.4), human Nav1.5 (hNav1.5), and mouse Nav1.6 (mNav1.6) channel plasmids were cotransfected with enhanced green fluorescent protein (eGFP) into HEK293T cells. Additionally, plasmids expressing β1 and β2 subunits tagged with eGFP were cotransfected with the human Nav1.7 (hNav1.7) channel into HEK293T cells. Human Nav1.8 (hNav1.8) was transiently transfected into ND7/23 cells, along with eGFP, using Lipofectamine 2000 (Invitrogen), adhering strictly to the manufacturer’s protocol. For manual patch-clamp experiments, the cells were plated onto glass coverslips and used within 20 to 48 h of transfection.
as §2

T1 sequence (Q15858 whole entry Y1548A/V1552A/M1593A): as the sequence (Q15858 whole entry Y1548A/F1609A) above, with V1552A, M1593A, A1609F counted along it
T1 sequence (Q07699 19-218 partner): as the sequence (Q07699 19-218 partner) above
T1 sequence (O60939 30-215 partner): as the sequence (O60939 30-215 partner) above

SMILES: Cc1ccc(Cn2cc([C@H](CC(=O)NCCN(C)C)c3ccc(F)cc3)c3ccccc32)cc1 [WN2-R]
- Effect of the mutation on antagonistic activity [1]: minimal effects
- Effect of the mutation on antagonistic activity (Nav1.7 Y1548A/F1609A): minimal effects
- Effect of the mutation on antagonistic activity (Nav1.7 E1545A/E1600A): inhibitory effect on WN2-R activity
- Analgesic rate (normalized number of writhing) ([2]; i.g., 5 mg/kg): 30.0%
- Analgesic rate (normalized number of writhing) ([2]; i.p. (method: 1 mg/kg i.m.)): 34.1%
- Activity of P1 relative to P2 (human Nav1.7 (hNav1.7); ratio of Nav1.7 IC50 values of the enantiomers): 4.57 times
- IC50 (human Nav1.7 (hNav1.7); −80 mV holding, step to V1/2 of inactivation for 8 s, HEK293T): 24.7 ± 9.4 nM
